Where two headings read alike, the source gives them in different places.
Assays:
[1] = system: PGE2 secretion by mouse bladder cells; test: PGE2 ELISA of mouse bladder cell culture supernatants; type: cell-based; settings: for effect on the effect of LPS on PGE2 secretion: LPS (1 μg/ml), analgesic 5 or 50 μM
Procedure: Bladder cells were removed from euthanized animals C57BL/6 mice (8-12 weeks old) and cells were isolated by enzymatic digestion followed by purification on a Percoll gradient. […] Bladder slurries were enzymatically digested for 30 minutes at 37° C. Undigested fragments were further dispersed through a cell-trainer. The cell suspension was pelleted and added to a discontinue 20%, 40% and 75% Percoll gradient for purification on mononuclear cells. Each experiment used 50-60 bladders. […] Cells were cultured at 37° C. in a 5% CO2 atmosphere. Bladder cells were treated with analgesic solutions (50 well) either alone or together with carbachol (10-Molar, 50 μl/well), as an example of non-inflammatory stimuli, or lipopolysaccharide (LPS) of Salmonella typhimurium (1 μg/ml, 50 μl/well), as an example of […] stimuli. […] Cells were fixed, permeabilized and blocked for detection of Cyclooxygenase-2 (COX2) using a fluorogenic substrate. In selected experiment cells were stimulated 12 hours in vitro for analysis of COX2 responses […] More specifically, culture supernatants or PGE2 standards were added to the wells of a 96-well polystyrene microplate coated with a goat anti-mouse polyclonal antibody. After one hour incubation on a microplate shaker, an HRP-conjugated PGE2 was added and plates incubated for an additional two hours at room temperature. The plates were then washed and HRP substrate solution added to each well. The color was allowed to develop for 30 min and the reaction stopped by addition sulfuric acid before reading the plate at 450 nm with wavelength correction at 570 nm. Results are expressed as mean pg/ml of PGE2.

[2] = adult humans; cited from earlier work
[3] = system: COX2 expression by mouse bladder cells; test: Cell-based ELISA of total COX2 in mouse bladder cells; settings: for induction of COX2 responses by analgesic alone: 5 μM or 50 μM, 24-hour cultures, no stimulus; for effect on the effect of LPS on COX2 levels: LPS (1 μg/ml), analgesic at either 5 μM or 50 μM
Procedure: Bladder cells were removed from euthanized animals C57BL/6 mice (8-12 weeks old) and cells were isolated by enzymatic digestion followed by purification on a Percoll gradient. Briefly, bladders from 10 mice were minced with scissors to fine slurry in 10 ml of digestion buffer (RPMI 1640, 2% fetal bovine serum, 0.5 mg/ml collagenase, 30 μg/ml DNase). Bladder slurries were enzymatically digested for 30 minutes at 37° C. Undigested fragments were further dispersed through a cell-trainer. The cell suspension was pelleted and added to a discontinue 20%, 40% and 75% Percoll gradient for purification on mononuclear cells. Each experiment used 50-60 bladders.
After washes in RPMI 1640, bladder cells were resuspended RPMI 1640 supplemented with 10% fetal bovine serum, 15 mM HEPES, 2 mM L-glutamine, 100 U/ml penicillin, and 100 μg/ml of streptomycin and seeded in clear-bottom black 96-well cell culture microculture plates at a cell density of 3×10^4 cells per well in 100 μl. Cells were cultured at 37° C. in a 5% CO2 atmosphere.
Bladder cells were treated with analgesic solutions (50 well) either alone or together with carbachol (10-Molar, 50 μl/well), as an example of non-inflammatory stimuli, or lipopolysaccharide (LPS) of Salmonella typhimurium (1 μg/ml, 50 μl/well), as an example of […] stimuli. When no other effectors were added to the cells, 50 μl of RPMI 1640 without fetal bovine serum were added to the wells to adjust the final volume to 200 μl.
After 24 hours of culture, 150 μl of culture supernatants were collected, spun down for 2 min at 8,000 rpm at 4° C. to remove cells and debris and stored at −70° C. for analysis of Prostaglandin E2 (PGE2) responses by ELISA. Cells were fixed, permeabilized and blocked for detection of Cyclooxygenase-2 (COX2) using a fluorogenic substrate. In selected experiment cells were stimulated 12 hours in vitro for analysis of COX2 responses
COX2 responses were analyzed by a Cell-Based ELISA using Human/mouse total COX2 immunoassay (R&D Systems), following the instructions of the manufacturer. Briefly, after cells fixation and permeabilization, a mouse anti-total COX2 and a rabbit anti-total GAPDH were added to the wells of the clear-bottom black 96-well cell culture microculture plates. After incubation and washes, an HRP-conjugated anti-mouse IgG and an AP-conjugated anti-rabbit IgG were added to the wells. Following another incubation and set of washes, the HRP- and AP-fluorogenic substrates were added. Finally, a Victor® V multilabel plate reader (PerkinElmer) was used to read the fluorescence emitted at 600 nm (COX2 fluorescence) and 450 nm (GAPDH fluorescence). Results are expressed as relative levels of total COX2 as determined by relative fluorescence unit (RFUs) and normalized to the housekeeping protein GAPDH.

[4] = Inhibition of the urge to urinate in volunteer subjects; type: in vivo, human
From the text: Twenty volunteer subjects, both male and female were enrolled, each of which experienced premature urge or desire to urinate, interfering with their ability to sleep for a sufficient period of time to feel adequately rested. […] At least 14 subjects reported that they were able to rest better because they were not being awakened as frequently by the urge to urinate.

[5] = Serum levels of analgesic in human blood after oral therapeutic doses; type: in vivo; settings: adult humans, conversion of mg/L by molecular weight
From the text: Table 3 summarizes the results of several studies that measured serum levels of analgesic after oral therapeutic doses in adult humans. […] Therefore, the doses of analgesic tested in vitro in Table 2 cover the range of concentrations achievable in vivo in humans.

[6] = LPS (1 μg/ml) plus analgesic 5 μM, LPS alone 925 ± 55, unstimulated <20.5
[7] = LPS (1 μg/ml) plus analgesic 50 μM, LPS alone 925 ± 55, unstimulated <20.5
[8] = LPS (1 μg/ml) plus analgesic 5 μM, LPS alone 420 ± 26, unstimulated 158 ± 18
[9] = LPS (1 μg/ml) plus analgesic 50 μM, LPS alone 420 ± 26, unstimulated 158 ± 18

CC(=O)Nc1ccc(O)cc1 [Acetaminophen, N-acetyl-para-aminophenol]
PGE2 levels [1, 6]: 619 ± 32 pg/mL | PGE2 levels [1, 7]: 600 ± 45 pg/mL | effect on the effect of LPS on PGE2 secretion [1]: suppressed | Maximum serum levels after oral therapeutic doses [2]: 11 to 18 mg/L | induction of COX2 responses by analgesic alone [3]: none of the analgesics tested induced COX2 responses | Total COX2 levels (Normalized RFUs) [3, 8]: 275 ± 12 Normalized RFUs | Total COX2 levels (Normalized RFUs) [3, 9]: 243 ± 15 Normalized RFUs | effect on the effect of LPS on COX2 levels [3]: suppress

CC(=O)Oc1ccccc1C(=O)O [Aspirin, Acetylsalicylic acid]
PGE2 levels [1, 6]: 588 ± 21 pg/mL | PGE2 levels [1, 7]: 571 ± 53 pg/mL | effect on the effect of LPS on PGE2 secretion [1]: suppressed | Maximum serum levels after oral therapeutic doses [2]: 30 to 100 mg/L | induction of COX2 responses by analgesic alone [3]: none of the analgesics tested induced COX2 responses | Total COX2 levels (Normalized RFUs) [3, 8]: 240 ± 17 Normalized RFUs | Total COX2 levels (Normalized RFUs) [3, 9]: 258 ± 21 Normalized RFUs | effect on the effect of LPS on COX2 levels [3]: suppress

C[N+](C)(C)CCOC(N)=O [Carbachol, carbachol]
PGE2 levels ([1]; stimulus alone, no analgesic (LPS 1 μg/ml, Carbachol (mM)), unstimulated <20.5): <20.5 pg/mL | PGE2 levels (pg/ml) ([1]; stimulus alone, no analgesic (LPS 1 μg/ml, Carbachol (mM)), unstimulated <20.5, listed as carbachol): not detected | Total COX2 levels (Normalized RFUs) ([3]; stimulus alone, no analgesic (LPS 1 μg/ml, Carbachol (mM)), unstimulated 158 ± 18): 149 ± 21 Normalized RFUs | Total COX2 levels (Normalized RFUs) ([3]; stimulus alone, no analgesic (LPS 1 μg/ml, Carbachol (mM)), unstimulated 158 ± 18, listed as carbachol): no significant effect

CC(C)Cc1ccc(C(C)C(=O)O)cc1 (stereo not drawn) [Ibuprofen, ibuprofen]
PGE2 levels [1, 6]: 593 ± 46 pg/mL | PGE2 levels [1, 7]: 568 ± 32 pg/mL | effect on the effect of LPS on PGE2 secretion [1]: suppressed | Maximum serum levels after oral therapeutic doses [2]: 24 to 32 mg/L | benefit of less frequent urges to urinate after several weeks of nightly use ([4]; several subjects): no longer being realized | benefit after several days of abstaining from taking the dosages ([4]; subjects who had lost the benefit): return of the benefit | subjects who reported that they were able to rest better because they were not being awakened as frequently by the urge to urinate ([4]; twenty volunteer subjects, 400-800 mg as a single dose prior to bedtime): At least 14 subjects

COc1ccc2cc([C@H](C)C(=O)O)ccc2c1 [Naproxen]
PGE2 levels [1, 6]: 597 ± 19 pg/mL | PGE2 levels [1, 7]: 588 ± 37 pg/mL | effect on the effect of LPS on PGE2 secretion [1]: suppressed | Maximum serum levels after oral therapeutic doses [2]: ≤ 60 mg/L | Maximum serum levels after oral therapeutic doses [5]: ≤ 260 µM | induction of COX2 responses by analgesic alone [3]: none of the analgesics tested induced COX2 responses | Total COX2 levels (Normalized RFUs) [3, 8]: 284 ± 11 Normalized RFUs | Total COX2 levels (Normalized RFUs) [3, 9]: 279 ± 23 Normalized RFUs | effect on the effect of LPS on COX2 levels [3]: suppress

Reference: patent US10596127B2, “Composition for reducing the frequency of urination, method of making and use thereof” (WELLESLEY PHARMACEUTICALS, LLC, priority 2013, dated 2020)
